Measured values published in patent US11345713B2, “Compounds as modulators of TLR2 signaling” (Neuropore Therapies, inc., priority 2018, dated 2022).

Tests used:
[1] = biological target: T1, human TLR2 (Pam3CSK4, TLR1/2 agonist) in HEK-Blue hTLR2 cells (Homo sapiens, UniProt O60603); experiment: HEK-Blue hTLR2 antagonism assay (SEAP reporter) with Pam3CSK4 as agonist; format: cell-based; settings: 2 h compound pre-incubation, approx. 3×EC50 Pam3CSK4, 18 h, SEAP OD 655 nm, background subtracted
T1 construct: host or cells: HEK-Blue hTLR2 (HEK-293)
Outline: (§1)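 HEK-Blue hTLR2 cells (HEK-293 with human TLR2 and NFκB-driven SEAP), 1×10^5/well, pretreated with compound (1% DMSO final) for 2 h, then stimulated with about 3×EC50 Pam3CSK4 or Pam2CSK4 (EC50 set each run) for 18 h at 37 °C. Supernatant SEAP read by Quanti-Blue at OD 655 nm after 15 min; background-subtracted IC50.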

[2] = biological target: T2, human TLR2 (Pam2CSK4, TLR2/6 agonist) in HEK-Blue hTLR2 cells (Homo sapiens, UniProt O60603); experiment: HEK-Blue hTLR2 antagonism assay (SEAP reporter) with Pam2CSK4 as agonist; format: cell-based; settings: 2 h compound pre-incubation, approx. 3×EC50 Pam2CSK4, 18 h, SEAP OD 655 nm, background subtracted
T2 construct: host or cells: HEK-Blue hTLR2 (HEK-293)
Outline: as §1

T2 sequence (O60603 19-784 limits assumed): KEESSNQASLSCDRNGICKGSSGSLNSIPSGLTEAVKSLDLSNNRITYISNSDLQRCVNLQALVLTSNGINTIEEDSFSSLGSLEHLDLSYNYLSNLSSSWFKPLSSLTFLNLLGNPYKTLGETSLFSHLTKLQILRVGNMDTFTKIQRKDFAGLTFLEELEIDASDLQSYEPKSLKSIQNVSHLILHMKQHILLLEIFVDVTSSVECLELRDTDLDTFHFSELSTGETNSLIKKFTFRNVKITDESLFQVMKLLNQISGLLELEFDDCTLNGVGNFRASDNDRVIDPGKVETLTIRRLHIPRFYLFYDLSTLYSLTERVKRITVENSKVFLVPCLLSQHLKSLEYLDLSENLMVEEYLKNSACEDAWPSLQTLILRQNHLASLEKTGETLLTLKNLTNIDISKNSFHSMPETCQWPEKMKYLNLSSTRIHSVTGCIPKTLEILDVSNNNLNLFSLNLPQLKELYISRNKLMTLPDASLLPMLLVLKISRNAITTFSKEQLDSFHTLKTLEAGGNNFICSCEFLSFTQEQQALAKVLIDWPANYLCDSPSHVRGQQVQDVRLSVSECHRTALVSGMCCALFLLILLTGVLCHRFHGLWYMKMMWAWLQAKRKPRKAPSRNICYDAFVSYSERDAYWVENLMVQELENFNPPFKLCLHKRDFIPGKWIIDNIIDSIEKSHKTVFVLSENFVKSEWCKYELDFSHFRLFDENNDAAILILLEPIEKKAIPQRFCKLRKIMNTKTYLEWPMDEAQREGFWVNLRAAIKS
T1 sequence (O60603 19-784 limits assumed): as above

IC50 [1] [µM]	IC50 [2] [µM]	Compound
3.6	4.4	CC(C)(C)OC(=O)N1CCN(/N=C/c2cc(/C=C/c3ccc(N4CCCC4)cc3)cc(F)c2O)CC1 [compound 95, tert-butyl 4-(((E)-3-fluoro-2-hydroxy-5-((E)-4-(pyrrolidin-1-yl)styryl)benzylidene)amino)piperazine-1-carboxylate]
1.3	3.2	Oc1c(F)cc(/C=C/c2ccc(N3CCCC3)cc2)cc1/C=N/N1CCNCC1 [compound 96]
